Here are results for eleven compounds from patent US20240075093A1, “COMPOSITIONS AND METHODS OF TREATING A PI3K MEDIATED DISEASE” (VIRGINIA TECH INTELLECTUAL PROPERTIES, INC., priority 2020, published 2024).

Where no end group is shown, it is not given here.

As usually defined, the IC50 is the midpoint of a concentration-inhibition curve. A low value points to greater potency.

Data set [1] concerns LN229/GSCs. Description: TMZ sensitivity of LN229/GSCs. Type of data set: cell-based. The conditions noted are these: Homo sapiens, LN-229.
In data set [2] the test system is AKT. Description: AKT activation in GBM cells. Type of data set: cell-based.
Data set [3] has as its system tumor growth in mice. Description: GBM tumor growth in mice. The data set is classed as in vivo.
Data set [4] has as its target p110b (Homo sapiens, UniProt P42338). Description: p110b activity ELISA (cell-free kinase assay). The data set is classed as biochemical. The conditions noted are these: ELISA; for activity of p110b: 100 nM, isolated protein subunit. The text has this:
The activity of the p110b PI3K catalytic subunit was monitored via ELISA upon increasing doses of Ante-Selectide-18.
(§1) Relative activity is the ratio of respective treated groups to their non-treated controls.
(FIG. 51A) 3D of a p110β/p85α complex determined by SWISS-MODEL and Cluspro. (FIG. 51B) Protein sequences were aligned using COBALT. C2 domains (top) are show. Red bars: same residues; Grey bars: different residues; Red lines: missing residues. […] in p110β C2 (bottom) is shown and termed as 018. Docking of p110β and p85α (FIG. 51C) or p110α and p85α (FIG. 51D) was done by SWISS-MODEL, Cluspro, and Chimera. The 018 motif is labeled in magenta. Deletion of β18 motif (FIG. 51E) changed the 3D shapes of p110β/p85 (FIG. 51C). (FIG. 51F) p110β cell-free kinase assay. An enzyme-linked immunosorbent assay (ELISA) was used to measure levels of lipids PIP2/PIP3. (FIG. 51G) Effect of PI3K inhibitors on p110s using ELISA. p110β (FIG. 51H) or p110α (FIG. 51I) was docked with Selectide-18-bound p85α using Cluspro/Chimera.
(§2) Applicant also included a control scramble peptide containing the antennapedia sequence followed by the amino acid sequence of Ante-Selectide-18 randomly scrambled. […] Applicant reports that this drug is not effective at inhibiting the kinase activity of p110b or other PI3K subunits at 100 nM, showing the promise of the Ante-Selectide-18 peptide as a potent selective p110b inhibitor at a low dose.

Data set [5] relates to PI3K/AKT signaling in SF295 cells. In words: immunoblotting of PI3K/AKT signaling in SF295 cells. The data set is classed as cell-based. The conditions noted are these: for AKT activity: 100 μM peptide. The protocol: SF295 cells were treated with 200 μM Ante-Selectide-18 for 4 days with a replenishment of fresh peptide every day. The vehicle was used as the control. PI3K/AKT signaling was analyzed using immunoblotting. Three signaling pathways (GSK3b, RAC1/CDC42, and MTOR) are shown. ACTB is the loading control.
Invasion molecules RAC1/CDC42 and MMPs are shown. Images were quantified using Image J. 0 h time point is set as 1.0. […] Apoptosis molecules FOXO3, BIM, and c-CASP3 are shown. (FIG. 9C) Invasion/survival signaling downstream of p110p.
(§3) (FIG. 12A) p110βC2in. CPP: cell-penetrating peptide. Simulated p110βC2in (rainbow as represented in greyscale) is shown. (FIG. 12B) FITC-p110βC2in in LN229/GSCs was imaged using a fluorescence microscope. Upper: FITC; lower: bright view. (FIG. 12C) PI3K/AKT activity affected by 100 μM p110βC2in (+) or C2Scramble-1 (−). (FIG. 12D) MTS Cell viability assay. Cells were treated with 50 μM peptides for 4 days. Student t test was used to determine P values.
In FIG. 3 Applicant tested whether Ante-Selectide-18 affects PI3K signaling in GBM cells. […] In contrast, another PI3K/AKT downstream target MTOR was not inhibited by this peptide.
(In general: Immunoblotting shows a protein as a band on a membrane.)

Data set [6] deals with p110c (Homo sapiens, UniProt P42336). In words: PI3K subunit activity ELISA. The data set is classed as biochemical. The conditions noted are these: 100 nM. On the procedure: as §1, §2
p110c, sequence (P42336 whole entry): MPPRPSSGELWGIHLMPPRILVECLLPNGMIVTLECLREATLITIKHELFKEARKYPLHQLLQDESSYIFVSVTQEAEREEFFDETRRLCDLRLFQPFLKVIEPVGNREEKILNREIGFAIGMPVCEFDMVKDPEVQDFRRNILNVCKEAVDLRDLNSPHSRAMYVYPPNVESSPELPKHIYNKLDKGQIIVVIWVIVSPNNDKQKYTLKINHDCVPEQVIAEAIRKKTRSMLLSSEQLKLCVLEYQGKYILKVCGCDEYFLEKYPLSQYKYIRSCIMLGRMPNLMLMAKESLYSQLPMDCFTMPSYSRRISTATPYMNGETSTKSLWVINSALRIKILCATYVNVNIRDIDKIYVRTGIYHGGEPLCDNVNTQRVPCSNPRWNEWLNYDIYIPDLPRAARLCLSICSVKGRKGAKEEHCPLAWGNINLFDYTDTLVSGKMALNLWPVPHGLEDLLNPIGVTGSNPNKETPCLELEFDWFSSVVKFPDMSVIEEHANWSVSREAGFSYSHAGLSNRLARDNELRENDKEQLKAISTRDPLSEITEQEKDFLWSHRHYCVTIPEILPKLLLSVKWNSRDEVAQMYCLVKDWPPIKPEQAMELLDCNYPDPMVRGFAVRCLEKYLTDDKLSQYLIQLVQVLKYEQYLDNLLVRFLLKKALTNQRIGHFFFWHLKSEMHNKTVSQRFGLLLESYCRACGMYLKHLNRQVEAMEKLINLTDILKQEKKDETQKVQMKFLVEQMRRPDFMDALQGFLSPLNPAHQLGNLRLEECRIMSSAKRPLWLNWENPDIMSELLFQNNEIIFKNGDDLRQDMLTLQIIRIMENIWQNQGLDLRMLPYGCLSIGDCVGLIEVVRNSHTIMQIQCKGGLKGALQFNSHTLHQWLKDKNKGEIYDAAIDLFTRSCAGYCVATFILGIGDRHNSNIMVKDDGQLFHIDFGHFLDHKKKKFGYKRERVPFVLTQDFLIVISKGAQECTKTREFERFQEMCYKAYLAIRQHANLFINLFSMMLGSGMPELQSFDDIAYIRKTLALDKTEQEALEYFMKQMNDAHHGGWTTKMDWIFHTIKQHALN
A general note: In an ELISA, binding on a coated surface is turned into a signal by an enzyme label.

Data set [7] addresses p110γ (Homo sapiens, UniProt P48736). In words: PI3K subunit activity ELISA. The data set is classed as biochemical. The conditions noted are these: 100 nM. On the procedure:
as §1, §2

Data set [8] addresses p110δ (Homo sapiens, UniProt O00329). Description: PI3K subunit activity ELISA. Type of data set: biochemical. The conditions noted are these: 100 nM. On the procedure:
as §1, §2

Data set [9] relates to SF295 cells. In words: MTS cell viability assay. The data set is classed as cell-based. The conditions noted are these: 50 μM peptides, 4 days. The protocol:
as §3
Cell viability was measured by the MTS assay. P values were determined using the student t test or one-way ANOVA. Error bars represent three independent experiments.
This scheme has been repeated in experiments presented hereafter. Cell viability was determined using the MTS viability assay. Percentages of cell viability were obtained by normalizing the MTS readings of treatment groups to that of DMSO group. (FIG. 34B) Scores of Excess Over Bliss (EOB) calculated using the Bliss Independence model. The drug combination is synergistic if EOB is more than 0%, additive if EOB equals to 0%, or antagonistic if EOB is less than 0%. […] (FIG. 34D) EOB scores of drug combinations in LN229 and VTC-001 cells. (FIG. 34E) Caspase 3/7 activity in VTC-103 and VTC-001 cells. The activity of cleaved caspase 3/7 (active) was determined using a luminescence assay. Shown are luminescence readings. (FIG. 34F) EOB scores of drug combinations in VTC-103 and VTC-001 cells. […] SF295 cells were subcutaneously injected into immuno-deficient mice. […] Tumor volumes are shown. […] Cell viability was determined using the MTS viability assay. Percentages of cell viability were obtained by normalizing the MTS readings of treatment groups to that of shNS group. […]
Cell viability was determined by the MTS cell viability assay (Promega) as described previously 21,24-27. […] At each hour time point, the absorbance at 490 nm was measured using a FilterMax F3 microplate reader (Molecular Devices, LLC) according to the manufacturer's instructions. Percent cell viability was obtained by dividing the absorbance of treatment groups to those of untreated and respective vehicle control groups.
For orientation: Tetrazolium dyes change colour on reduction, which living cells bring about.

Data set [10] concerns p110β^hyper cells. In words: melanoma cell viability (CellTiter Blue). The data set is classed as cell-based. The conditions noted are these: 0-40 μM of inhibitors; for selective inhibition of cell viability: p110β^hyper cells versus MelST. The protocol:
(§4) (FIG. 49A) Immunoblotting of p110s and signaling molecules. 3-actin (ACTB) was used as the loading control. (FIG. 49B) Summary of genetic mutations and protein levels in melanoma cells. Information regarding hot spot mutations was retrieved from e.g., DepMap. (FIG. 49C) Cells were treated with 0-40 μM of inhibitors. Cell viability was measured using CellTiter Blue. IC50s were calculated using Graphpad.
(§5) (FIG. 52A) Cells were treated with 10 μM Selectide-18-FITC for 1 h and imaged immediately or after 96h. (FIG. 52B) Selectide-18-FITC in melanoma cells were imaged at different times. FITC was quantified using Image J and FITC intensities at different times were normalized with that at 1 h. Half-life was calculated using GraphPad. (FIG. 52C) UACC-62, MelST, or MeWo cells were treated with 50 μM of Selectide-18 for 4 days with daily repeated dosing. (FIG. 52D) MelST or melanoma cells were treated with 50 μM of Selectide-18 for 6 days with daily repeated dosing. Cell viability was measured using Cell-Titer Blue. (FIG. 52E) MelST, UACC-62, or MeWo cells were treated with Scramble or Selectide-18 at different doses. IC50s were calculated using GraphPad. (FIG. 52F) Nod scid mice bearing UACC-62 subcutaneous tumors were treated with Selectide-18 (3 mg/kg) intratumoral injection/daily) for 16 days. Tumors were measured using a caliper and tumor volumes were calculated as (length×width2))/2. Student t test or ANOVA was used to determine P values. ns: not significant; **: P<0.01; ***P<0.001.

Data set [11] deals with MDA-MB-435S cells. In words: melanoma cell viability (CellTiter Blue). Type of data set: cell-based. The conditions noted are these: 0-40 μM, CellTiter Blue. The protocol:
as §4, §5

Data set [12] concerns PI3K in SK-MEL-94 cells. Description: PI3K activity in melanoma cells (immunoblotting). The conditions noted are these: 10 μM AZD6482. The data set is classed as cell-based.
The test system of data set [13] is PI3K in SK-MEL-147 cells. In words: PI3K activity in melanoma cells (immunoblotting). The conditions noted are these: 10 μM AZD6482. The data set is classed as cell-based.
Data set [14] has as its system LN229/GSCs. Description: wound-healing (migration) assay. The data set is classed as cell-based. The conditions noted are these: 8 μM, 24 hours. The protocol:
(§6) (FIG. 8A) Wound-healing assay. Cells were plated confluently and then treated with PI3K isoform-selective inhibitors at 8 μM for 24 hours. Cells were imaged at 0- and 24-hour time point. Images of 24-hour time point are shown. Scale bar: […]. (FIG. 8B-8D) Quantification of migration distance. Images from three different areas were analyzed using Image J. Migration distances were obtained by subtracting 24-hour measurements with those of 0-hour.

Data set [15] deals with SF295 cells. Description: wound-healing (migration) assay. The data set is classed as cell-based. The conditions noted are these: 8 μM, 24 hours. The protocol:
as §6

[16] abbreviates: 200 μM, 4 days, fresh peptide every day.

p110b, sequence (P42338 whole entry): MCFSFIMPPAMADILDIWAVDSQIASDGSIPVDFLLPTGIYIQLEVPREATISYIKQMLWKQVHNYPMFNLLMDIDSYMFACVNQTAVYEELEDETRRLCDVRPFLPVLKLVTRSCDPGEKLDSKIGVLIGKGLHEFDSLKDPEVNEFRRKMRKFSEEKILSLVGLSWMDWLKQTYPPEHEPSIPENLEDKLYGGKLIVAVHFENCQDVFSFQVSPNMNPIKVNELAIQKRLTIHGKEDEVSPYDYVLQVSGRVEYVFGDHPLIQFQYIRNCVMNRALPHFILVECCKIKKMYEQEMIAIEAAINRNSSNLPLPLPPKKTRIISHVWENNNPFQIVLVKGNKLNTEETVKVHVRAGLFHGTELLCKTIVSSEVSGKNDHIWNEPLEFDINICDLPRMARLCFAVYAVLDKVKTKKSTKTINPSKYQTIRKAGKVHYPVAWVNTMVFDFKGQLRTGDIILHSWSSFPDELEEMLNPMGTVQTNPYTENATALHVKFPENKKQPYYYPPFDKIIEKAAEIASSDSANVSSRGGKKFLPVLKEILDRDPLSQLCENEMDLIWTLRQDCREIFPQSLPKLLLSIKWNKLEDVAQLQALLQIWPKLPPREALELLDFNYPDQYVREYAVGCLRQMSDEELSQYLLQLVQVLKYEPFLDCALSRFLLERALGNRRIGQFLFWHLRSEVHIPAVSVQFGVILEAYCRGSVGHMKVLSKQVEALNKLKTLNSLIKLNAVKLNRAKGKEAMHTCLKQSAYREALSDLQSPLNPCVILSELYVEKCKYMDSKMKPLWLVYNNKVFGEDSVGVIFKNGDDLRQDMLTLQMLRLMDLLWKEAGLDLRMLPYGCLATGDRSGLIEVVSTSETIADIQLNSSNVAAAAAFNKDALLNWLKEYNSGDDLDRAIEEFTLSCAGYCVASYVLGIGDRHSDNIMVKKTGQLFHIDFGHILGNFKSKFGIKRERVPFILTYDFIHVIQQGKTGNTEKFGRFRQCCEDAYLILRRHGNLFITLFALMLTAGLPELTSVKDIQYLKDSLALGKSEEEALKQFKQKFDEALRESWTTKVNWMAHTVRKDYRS
p110δ, sequence (O00329 whole entry): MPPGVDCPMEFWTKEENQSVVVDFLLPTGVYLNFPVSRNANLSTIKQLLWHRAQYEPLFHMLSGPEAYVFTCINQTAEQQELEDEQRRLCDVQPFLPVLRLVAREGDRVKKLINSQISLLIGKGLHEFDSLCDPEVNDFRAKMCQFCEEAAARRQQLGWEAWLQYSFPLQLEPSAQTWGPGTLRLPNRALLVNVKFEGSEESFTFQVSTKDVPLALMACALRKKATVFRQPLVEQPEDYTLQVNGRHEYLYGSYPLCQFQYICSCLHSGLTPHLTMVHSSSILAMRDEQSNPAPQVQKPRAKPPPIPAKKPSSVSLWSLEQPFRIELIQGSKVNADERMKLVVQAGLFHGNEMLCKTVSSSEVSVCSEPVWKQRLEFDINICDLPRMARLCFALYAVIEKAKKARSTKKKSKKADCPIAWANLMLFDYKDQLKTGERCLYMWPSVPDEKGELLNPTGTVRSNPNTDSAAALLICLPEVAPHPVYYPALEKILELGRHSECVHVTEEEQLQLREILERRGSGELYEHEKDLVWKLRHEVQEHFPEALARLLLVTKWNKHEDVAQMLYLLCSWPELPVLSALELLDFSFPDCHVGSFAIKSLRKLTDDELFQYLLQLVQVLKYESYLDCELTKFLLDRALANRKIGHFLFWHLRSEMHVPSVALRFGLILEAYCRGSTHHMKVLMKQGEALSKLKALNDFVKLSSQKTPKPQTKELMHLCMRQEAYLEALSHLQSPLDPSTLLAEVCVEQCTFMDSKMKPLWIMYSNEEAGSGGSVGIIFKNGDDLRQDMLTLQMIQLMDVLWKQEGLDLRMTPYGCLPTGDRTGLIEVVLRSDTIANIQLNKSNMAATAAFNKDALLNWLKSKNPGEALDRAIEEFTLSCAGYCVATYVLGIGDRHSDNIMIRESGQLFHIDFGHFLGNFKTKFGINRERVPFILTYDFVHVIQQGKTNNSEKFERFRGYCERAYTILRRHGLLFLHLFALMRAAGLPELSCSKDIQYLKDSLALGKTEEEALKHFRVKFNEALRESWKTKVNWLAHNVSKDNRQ
p110δ, sequence (P27986 whole entry partner): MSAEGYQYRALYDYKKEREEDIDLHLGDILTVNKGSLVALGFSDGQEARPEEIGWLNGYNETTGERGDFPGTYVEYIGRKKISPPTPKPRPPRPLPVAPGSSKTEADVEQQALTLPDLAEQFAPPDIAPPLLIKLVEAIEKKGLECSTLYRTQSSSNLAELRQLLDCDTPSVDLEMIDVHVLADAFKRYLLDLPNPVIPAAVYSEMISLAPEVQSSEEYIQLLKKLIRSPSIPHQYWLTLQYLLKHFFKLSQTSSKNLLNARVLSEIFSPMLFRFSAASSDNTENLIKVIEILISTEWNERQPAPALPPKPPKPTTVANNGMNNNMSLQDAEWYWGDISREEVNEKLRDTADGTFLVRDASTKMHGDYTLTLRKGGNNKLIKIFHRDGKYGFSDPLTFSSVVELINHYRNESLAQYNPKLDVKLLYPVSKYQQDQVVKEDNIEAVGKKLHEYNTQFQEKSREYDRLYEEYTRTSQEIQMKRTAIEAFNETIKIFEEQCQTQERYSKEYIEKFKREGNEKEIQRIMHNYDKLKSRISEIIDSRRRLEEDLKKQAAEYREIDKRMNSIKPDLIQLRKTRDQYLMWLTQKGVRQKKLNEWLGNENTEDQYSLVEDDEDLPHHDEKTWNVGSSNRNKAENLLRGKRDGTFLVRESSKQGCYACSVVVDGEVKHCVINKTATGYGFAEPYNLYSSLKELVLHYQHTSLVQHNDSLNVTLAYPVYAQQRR
p110γ, sequence (P48736 whole entry): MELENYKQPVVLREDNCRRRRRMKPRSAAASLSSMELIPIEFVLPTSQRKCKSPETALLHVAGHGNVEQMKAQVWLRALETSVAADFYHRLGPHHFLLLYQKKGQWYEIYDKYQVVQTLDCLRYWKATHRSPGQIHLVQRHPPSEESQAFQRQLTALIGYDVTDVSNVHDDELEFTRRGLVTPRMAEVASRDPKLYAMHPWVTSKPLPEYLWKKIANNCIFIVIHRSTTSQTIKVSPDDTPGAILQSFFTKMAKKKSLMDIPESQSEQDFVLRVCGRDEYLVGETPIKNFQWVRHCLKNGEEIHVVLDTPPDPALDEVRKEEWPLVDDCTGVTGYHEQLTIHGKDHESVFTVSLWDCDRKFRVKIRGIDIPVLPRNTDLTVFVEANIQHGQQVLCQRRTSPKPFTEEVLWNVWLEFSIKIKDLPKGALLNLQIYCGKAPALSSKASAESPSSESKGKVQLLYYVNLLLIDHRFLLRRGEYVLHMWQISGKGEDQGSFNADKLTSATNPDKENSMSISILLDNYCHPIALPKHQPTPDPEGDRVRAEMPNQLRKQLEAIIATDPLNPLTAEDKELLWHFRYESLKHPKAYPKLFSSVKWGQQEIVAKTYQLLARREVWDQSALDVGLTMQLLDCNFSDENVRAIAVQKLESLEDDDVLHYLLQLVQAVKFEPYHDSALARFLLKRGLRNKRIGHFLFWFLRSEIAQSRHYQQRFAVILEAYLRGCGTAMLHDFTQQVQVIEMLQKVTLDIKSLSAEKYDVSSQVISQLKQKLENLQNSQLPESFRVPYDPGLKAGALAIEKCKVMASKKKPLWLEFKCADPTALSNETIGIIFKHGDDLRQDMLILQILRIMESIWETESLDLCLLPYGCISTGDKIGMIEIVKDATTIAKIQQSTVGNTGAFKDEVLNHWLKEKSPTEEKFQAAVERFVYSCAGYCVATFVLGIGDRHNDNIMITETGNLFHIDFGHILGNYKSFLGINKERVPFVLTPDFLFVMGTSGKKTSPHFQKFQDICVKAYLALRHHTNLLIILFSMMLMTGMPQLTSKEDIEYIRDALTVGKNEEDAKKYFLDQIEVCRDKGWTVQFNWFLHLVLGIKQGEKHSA

In turn, `Cn1nnc2c(C(N)=O)ncn2c1=O` [TMZ, temozolomide] gave an IC50 in [1] of 100 µM.

As to `Cc1ccc([N+](=O)[O-])cc1S(=O)(=O)N(C)/N=C/c1cnc2ccc(Br)cn12` [PIK-75], in [2], the “AKT activation / selectivity” value is “non-selectively inhibits AKT and ERK”.

As for `Cc1c(Cn2c(C)nc3c(C(=O)O)cc(N4CCOCC4)cc32)cccc1C(F)(F)F` [GSK2636771], in [3], the “tumor growth in mice” value was “slow down tumor growth”.

Turning to “IYKTSKTRSQKTKIKPNT (Scrambled control peptide) [scrambled peptide]”, the “activity of p110b” value in data set [4] is on record as “didn't inactivate p110β”.

For “RQPKIWFPNRRKPWKKTKKSTKTINPSKYQTIRK [Ante-Selectide-18]”, in [5] (setting [16]), the “MTOR (PI3K/AKT downstream target)” value is given as “not inhibited”; the “active forms of GSK3b and RAC1/CDC42” value was “remarkable decrease”; the “levels of phosphorylated form of AKT” value was “substantially reduced”. Further, the “activity of PI3K subunit p110c” value in data set [6] was “does not affect”. The “activity of PI3K subunit p110γ” value in [7] was “does not affect”. For the same compound, the “activity of PI3K subunit p110δ” value in data set [8] is reported as “does not affect”. The “activity of p110b” value in data set [4] is “inhibits the activity”. Moreover, the “activity of p110b” value in [4] (listed as ante-Selectide-18) is “Only Inhibits p110b”. The compound further displayed an IC50 in [4] (increasing doses) of 0.105 µM.

For the compound “scramble peptide: control C2Scramble peptide, e.g. TYKTSKRISKQTIKKPNT fused with RRRRRRRR (IYKTSKTRSQKTKIKPNT)”, the AKT activity entry in [5] is “not”. Also, the cell viability entry in data set [9] was “not”.

With `CC(C)(C)NS(=O)(=O)c1cncc(-c2cc(F)c3nc(N)nn3c2)c1` [CZC24832], the “selective inhibition of cell viability” value in [10] is given as “did not show a selective inhibition of cell viability”.

`Nc1nc2cc(-c3ccc4ncc(C(=O)N5CCOCC5)n4c3)ccc2o1` [MLN1117]: the “selective inhibition of cell viability” value in data set [10] is “did not show a selective inhibition of cell viability”.

Take `Cc1cc([C@@H](C)Nc2ccccc2C(=O)O)c2nc(N3CCOCC3)cc(=O)n2c1` [AZD6482]: the “sensitivity to AZD6482” value in [11] is “not sensitive and not”. Also, in data set [10] (CellTiter Blue), the cytotoxicity result is given as “cytotoxic”. Also, the PI3K activity entry in data set [12] is reported as “inactivated PI3K”; in data set [13], “not”.

For the compound `Nc1cc(C(F)(F)F)c(-c2cc(N3CCOCC3)nc(N3CCOCC3)n2)cn1` [BKM120], the cell migration entry in [14] and in [15] was “inhibited the migration” each time.

As for “RRRRRRRRTKKSTKTINPSKYQTIRK (p110bC2in - Selectide-18 with a cell penetrating peptide) [p110βC2in]”, in data set [5], the AKT activity entry is recorded as “blocked AKT activity”. In data set [9], the cell viability result is “suppressed cell viability”.
